pIC50: −log10 of the molar value.

One may read the melting point as the temperature, or range, at which the solid turns liquid. One may read the pIC50 as −log10 of the IC50, conventionally taken in molar units.

In one data set the test system is PMA-induced ear swelling. Put plainly: PMA-induced mouse ear swelling (topical anti-inflammatory activity). The data set is classed as in vivo, CD-1 (Crl.) derived male mice. The settings on record: topical 3 mg/ear applied 30 min before and 15 min after PMA, measured 6 hours after PMA, >=30% considered significant. The procedure:
A compound can be tested for topical anti-inflammatory activity by measuring the degree of inhibition of edema produced in a mouse ear that has been irritated by the application of a solution of a phorbol ester. [2-(7-Trifluoromethyl-quinolin-4-ylamino)-phenyl]-acetic acid sodium salt was tested for its anti-inflammatory activity as follows: Groups of 6 CD-1 (Crl.) derived male mice weighing 24±2 g were used. Phorbol 12-Myristate 13-Acetate (PMA 4 μg in 20 μl of Acetone) was applied topically to the anterior and posterior surfaces of the right ear to each animal. Vehicle (Ethanol:Acetone/1:1, 20 μl/ear) and [2-(7-Trifluoromethyl-quinolin-4-ylamino)-phenyl]-acetic acid sodium salt at 3 mg/ear were each applied 30 minutes before and 15 minutes after Phorbol 12-Myristate 13-Acetate challenge. Indomethacin (3 mg in 20 μl/ear of acetone:ethanol/1:1) as the positive control was similarly applied at the same timing. Ear swelling was then measured by a Dyer model micrometer gauge at 6 hours after Phorbol 12 Myristate 13-Acetate application as an index of inflammation. Percent inhibition was calculated according to the formula: ([Ic−It]/Ic)×100%, where Ic and It refer to increase of ear thickness (mm) in control and treated mice, respectively. Inhibition of 30 percent or more (≧30%) in ear swelling is considered significant anti-inflammatory activity.
[2-(7-Trifluoromethyl-quinolin-4-ylamino)-phenyl]-acetic acid sodium salt caused significant inhibition (80%) of the PMA-induced ear swelling vs vehicle control. […] When [2-(7-Trifluoromethyl-quinolin-4-ylamino)-phenyl]-acetic acid methyl ester was tested in this assay, the inhibition of ear swelling was not significant (20% inhibition).

The target of a further data set is T1, COX-1 enzyme (Homo sapiens, UniProt P23219).
T1 construct: Human platelets are used; endogenous in cells; host or cells: human platelets
The experiment in a line: COX-1 inhibition in human platelets (PGE2 formation, EIA). Format: cell-based. As to the method: Compounds can be tested for their ability to inhibit the COX-1 enzyme by the following procedure: Human platelets are used. Test compound and/or vehicle is incubated with cells (5×10^7/ml) in modified HEPES buffer pH 7.4 for 15 minutes at 37° C. The reaction is initiated by addition of 100 μM arachidonic acid for another 15 minute incubation period and terminated by further addition of 1 N HCl. An aliquot is removed and the amount of PGE 2 formed is determined spectrophotometrically by enzyme immunoassay (“EIA”) kit.
[2-(7-Trifluoromethyl-quinolin-4-ylamino)-phenyl]-acetic acid hydrochloride was screened at 6 concentrations to test for inhibition of the enzyme: 0.1 μM, 0.3 μM, 1 μM, 3 μM, 10 μM and 30 μM. [2-(7-Trifluoromethyl-quinolin-4-ylamino)-phenyl]-acetic acid hydrochloride inhibited the COX-1 enzyme with an IC50 of <0.1 μM in this assay.

For data set [1], the target named is T2, Human recombinant Cyclooxygenase-2 (Homo sapiens, UniProt P35354).
T2 construct: purchased Sigma C-0858; host or cells: Sf21 cells
T2 sequence (P35354 18-604): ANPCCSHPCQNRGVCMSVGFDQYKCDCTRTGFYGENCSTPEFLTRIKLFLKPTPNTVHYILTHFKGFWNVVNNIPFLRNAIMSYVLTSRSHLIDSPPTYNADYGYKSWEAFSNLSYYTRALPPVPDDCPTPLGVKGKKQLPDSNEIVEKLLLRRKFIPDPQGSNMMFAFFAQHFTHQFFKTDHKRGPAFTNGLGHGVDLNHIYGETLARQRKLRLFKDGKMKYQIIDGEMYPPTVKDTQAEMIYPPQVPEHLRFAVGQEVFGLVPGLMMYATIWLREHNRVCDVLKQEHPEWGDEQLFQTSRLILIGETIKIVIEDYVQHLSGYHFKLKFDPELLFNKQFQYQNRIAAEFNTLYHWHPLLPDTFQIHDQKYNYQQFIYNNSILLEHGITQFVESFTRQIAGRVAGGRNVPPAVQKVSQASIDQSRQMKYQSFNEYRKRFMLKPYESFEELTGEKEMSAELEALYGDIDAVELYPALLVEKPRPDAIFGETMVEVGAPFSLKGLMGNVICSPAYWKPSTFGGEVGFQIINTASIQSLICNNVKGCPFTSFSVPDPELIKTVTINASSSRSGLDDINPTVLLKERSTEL
The experiment in a line: COX-2 inhibition, human recombinant enzyme (PGE2 formation, EIA). The data set is classed as biochemical. The settings on record: human recombinant COX-2 expressed in Sf21 cells; 7 concentrations 0.01-10 μM; 0.3 μM arachidonic acid. As to the method:
Compounds can be tested for their ability to inhibit the COX-2 enzyme by the following procedure: Human recombinant Cyclooxygenase-2 expressed in Sf21 cells (Sigma, C-0858) is used. Test compound and/or vehicle is preincubated with 0.11 U cyclooxygenase-2, 1 mM reduced GSH, 500 μM phenol and 1 μM hematin for 15 minutes at 37° C. in Tris-HCl buffer pH 7.7. The reaction is initiated by addition of 0.3 μM arachidonic acid and terminated after 5 minutes by further addition of 1 N HCl. Following centrifugation, substrate conversion to PGE 2 is measured by an Amersham EIA kit.
[2-(7-Trifluoromethyl-quinolin-4-ylamino)-phenyl]-acetic acid hydrochloride was screened at 7 concentrations to test for inhibition of the enzyme: 0.01 uM, 0.03 μM, 0.1 μM, 0.3 μM, 1 μM, 3 μM and 10 μM.

T1 sequence (P23219 24-599): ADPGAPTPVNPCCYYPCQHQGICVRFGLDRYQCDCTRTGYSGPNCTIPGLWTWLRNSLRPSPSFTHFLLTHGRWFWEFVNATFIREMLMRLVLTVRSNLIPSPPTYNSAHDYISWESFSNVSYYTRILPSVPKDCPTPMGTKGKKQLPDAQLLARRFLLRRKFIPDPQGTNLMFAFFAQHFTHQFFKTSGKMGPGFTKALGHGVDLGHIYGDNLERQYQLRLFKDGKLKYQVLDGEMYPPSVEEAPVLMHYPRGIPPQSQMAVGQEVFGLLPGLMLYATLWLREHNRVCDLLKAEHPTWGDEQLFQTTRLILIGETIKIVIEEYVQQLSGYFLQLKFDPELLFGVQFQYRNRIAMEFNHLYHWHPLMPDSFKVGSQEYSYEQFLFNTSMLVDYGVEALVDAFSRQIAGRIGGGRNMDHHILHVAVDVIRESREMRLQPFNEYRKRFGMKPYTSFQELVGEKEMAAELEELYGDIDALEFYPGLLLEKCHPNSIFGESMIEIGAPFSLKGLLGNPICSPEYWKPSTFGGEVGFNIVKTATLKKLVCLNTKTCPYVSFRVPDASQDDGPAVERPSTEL

Regarding `Cl.O=C(O)Cc1ccccc1Nc1ccnc2cc(Cl)ccc12`, the melting point was in the range of 113 to 116 °C.

On to `COc1ccc2c(c1)c(CC(=O)O)c(C)n2C(=O)c1ccc(Cl)cc1` [Indomethacin, reference compound], for which the “inhibition of PMA-induced ear swelling vs vehicle control” value (from here on “inhibition … vs vehicle control”) with PMA-induced ear swelling is recorded as 77%.

Molecule `Cl.O=C(O)Cc1ccccc1Nc1ccnc2cc(C(F)(F)F)ccc12` [[2-(7-Trifluoromethyl-quinolin-4-ylamino)-phenyl]-acetic acid hydrochloride] gave a melting point of 103 to 104 °C. Also, the pIC50 against COX-1 enzyme (screened at 6 concentrations 0.1-30 μM, 100 μM arachidonic acid) was > 7.00. In addition, on COX-1 enzyme (tested separately at 3 concentrations (0.01, 0.03 and 0.1 μM)), the pIC50 is 7.09. The pIC50 in data set [1] is 7.21. For the same molecule, the “inhibition … vs vehicle control” value with PMA-induced ear swelling is 75%.

`COC(=O)Cc1ccccc1Nc1ccnc2cc(C(F)(F)F)ccc12` [[2-(7-Trifluoromethyl-quinolin-4-ylamino)-phenyl]-acetic acid methyl ester]: the “inhibition … vs vehicle control” value with PMA-induced ear swelling is 20%.

For the molecule `O=C([O-])Cc1ccccc1Nc1ccnc2cc(C(F)(F)F)ccc12.[Na+]` [[2-(7-Trifluoromethyl-quinolin-4-ylamino)-phenyl]-acetic acid sodium salt], in the data set on PMA-induced ear swelling, the “inhibition … vs vehicle control” value is reported as 80%.

The values are drawn from patent US20080139611A1, “METHODS OF USING 4-PHENYLAMINOQUINOLINES AS TOPICAL NON-STEROIDAL ANTIINFLAMMATORY COMPOUNDS” (priority 2006, published 2008).
